# According to patent US20190211102A1, “METHODS AND COMBINATION THERAPY TO TREAT CANCER” (Array BioPharma Inc., priority 2018, published 2019):
# Entries after “also recorded” stand apart in the source; their conditions may differ.
# Tests used:
# advanced solid tumors = assay: preliminary antitumor activity by RECIST version 1.1 and irRC, Part A; type: in vivo, human; conditions: ARRY-382 300 mg cohort, with pembrolizumab
# Excerpt: Key eligibility criteria for Part A was adult patients with confirmed diagnosis of: bladder cancer, head and neck squamous cell cancer, ovarian cancer, triple-negative breast cancer, gastric cancer, metastatic colorectal cancer, or pancreatic ductal adenocarcinoma, refractory to standard of car, with no standard therapy available or for which the patient refused standard therapy; advanced, unresectable, or metastatic melanoma with or without prior treatment; or advanced/metastatic PD-L1-positive non-small cell lung cancer (NSCLC) meeting any of the following criteria: (1) tumors without EGFR or ALK genomic aberrations in patients who had received no prior systemic chemotherapy or had disease progression on or after platinum-containing chemotherapy, or (2) tumors with EGFR or ALK genomic aberrations in patients with disease progression on a US Food and Drug Administration-approved therapy for EGFR or ALK genomic tumor aberrations. Patients who received prior immune checkpoint inhibitor treatment were excluded from the study.
# DLTs were determined using standard definitions.
# [1] = Phase 1b dose escalation (Part A): DLTs, adverse events, RP2D of ARRY-382 with pembrolizumab
# Protocol: DLTs were determined using standard definitions. Adverse events (AEs) and serious AEs were collected to analyze the safety and tolerability of treatment. […] Blood samples for pharmacodynamics analysis of circulating biomarkers, including CSF-1, were collected on days 1, 8, and 15 of cycle 1 and on day 1 of all subsequent cycles.
# CSF-1 = assay: pharmacodynamic analysis of circulating biomarkers: CSF-1 levels, Part A; type: in vivo, human
# [2] = Bendell et al. 2013, cited from earlier work
# [3] = plasma pharmacokinetics of ARRY-382, Phase 1b Part A (with pembrolizumab); type: in vivo, human
# [4] = Part A, ARRY-382 + pembrolizumab
compound,measurement,setting,value
"Cc1cccc(Cn2nc(C3CC3)c3c(NC(=O)c4cnc5cc(OCCN6CCN(C)CC6)ccn45)cccc32)n1 [ARRY-382, N-(3-cyclopropyl-1-((6-methylpyridin-2-yl)methyl)-1H-indazol-4-yl)-7-(2-(4-methylpiperazin-1-yl)ethoxy)imidazo[1,2-a]pyridine-3-carboxamide]",patients with stable disease per irRC,advanced solid tumors,3 patients
same,"stable disease per RECIST version 1.1, share of patients",advanced solid tumors,33%
same,"stable disease per irRC, share of patients",advanced solid tumors,50%
same,dose-limiting toxicities in the 200 mg cohort,"[1]; ARRY-382 200 mg QD + pembrolizumab, six patients",No DTLs occurred; also recorded: No DLTs occurred
same,patients who discontinued because of an AE of pneumonitis,"[1]; ARRY-382 200 mg cohort, onset in cycle 4",One
same,patients with dose reductions in the 300 mg cohort,[1]; ARRY-382 300 mg cohort,3 patients
same,patients who experienced a DLT in the 400 mg cohort,[1]; ARRY-382 400 mg QD + pembrolizumab,2 of 7 and Two of seven
same,course of AST and CK elevations after interruption of ARRY-382,[1]; Part A,resolved in all patients; also recorded: reversible
same,grade 4 events of increased blood CK,[1]; Part A,one
same,patients with AST elevation who required dose reduction,[1]; Part A,2 patients
same,patients with CK elevation who required dose reduction,[1]; Part A,3 patients
same,patients with immune-related adverse events (investigator-classified),[1]; Part A,5 patients
same,most common adverse events of any grade,"[1]; Part A, 19 patients, ARRY-382 + pembrolizumab","increased laboratory values (AST, CK, ALT, alkaline phosphatase (ALP), lipase, amylase), fatigue, pyrexia, and nausea"
same,most common grade 3/4 events (>10%),[1]; [4],"increased AST, increased CK, rash, lipase increased, increased ALP, increased ALT, and anemia"
same,patients with grade 3 AST elevation,[1]; [4],5 patients
same,on-study deaths (on treatment or within 30 days of last dose),"[1]; Part A, cause disease progression in all cases",3
same,recommended phase 2 dose (RP2D),"[1]; QD continuously, in combination with pembrolizumab 2 mg/kg IV every 3 weeks",300 mg
same,"immune-related adverse events, manageability",[1]; regardless of relationship to study drug,observed and were manageable
same,"average maximum increase in CSF-1 levels from baseline, 300 mg versus 400 mg cohorts",CSF-1; 300 mg vs 400 mg cohorts,similar
same,average maximum increase in CSF-1 levels from baseline,CSF-1; ARRY-382 300 mg QD with pembrolizumab,5.4 fold
same,relation of increases from baseline in CSF-1 levels to ARRY-382 exposure,CSF-1; Part A,correlated with increasing ARRY-382 exposure
same,doses with biological activity,[2]; QD,greater than or equal to 200 mg
same,maximum tolerated dose (MTD),[2]; once daily (QD),400 mg
same,exposure in the 300 mg versus 400 mg dose cohorts,[3]; 300 mg vs 400 mg QD,similar
same,dose proportionality of ARRY-382 exposure,"[3]; 200, 300, 400 mg QD with pembrolizumab",generally dose-proportional
same,PK interactions between ARRY-382 and pembrolizumab,"[3]; patients, Part A",no evidence of any PK interactions
